Test results published in US8080517B2, “Cell-permeable peptide inhibitors of the JNK signal transduction pathway” (Xigen SA, priority 2005, dated 2011).
Where a SMILES comes first, the peptide text is derived from it. [ ]: non-standard residue; d: D form.

Assays:
WiDr cells = assay: Irradiation (30 Gy) induced apoptosis; type: cell-based, human; settings: 1 μM added 30 minutes before 30 Gy, analyzed 48 hours later
Procedure: JNK is also activated by ionizing radiation. To determine whether inventive TAT-IB(s) peptides would provide protection against radiation-induced JNK damage, “WiDr” cells were irradiated (30 Gy) in presence or absence of D-TAT, inventive L-TAT-IB1(s) or inventive D-TAT-IB1(s) peptides (1 μM added 30 minutes before irradiation). Control cells (CTRL) were not irradiated. Cells were analyzed 48 hours later by means of PI and Hoechst 3342 staining, as described above. N=3, SEM are indicated.

[1] = Focal cerebral ischaemia, transient MCAO model, infarct volume; type: in vivo, male ICR-CD1 mice; settings: i.v. administration, FIG. 4
Excerpt: Evaluation of neuroprotection by inventive chimeric peptides after iv administration against focal cerebral ischaemia, in a transient MCAO model (see FIG. 4).
Transient ischemia in adult mice. Using male ICR-CD1 mice (6 weeks old; 18-37 g; Harlan), we provoked ischemia by introducing a filament from the common carotid artery into the internal carotid and advancing it into the arterial circle, thereby occluding the middle cerebral artery. We measured regional cerebral blood flow by laser Doppler flowmetry, with a probe fixed on the skull throughout the ischemia until 10 min after reperfusion. Rectal temperature was measured and maintained at 37° C. The mice were killed 48 h after reperfusion. Serial cryostat sections 20 μm thick were traced using a computer-microscope system equipped with the Neurolucida program (MicroBrightField) and the volumes of the ischemic area and of the whole brain were calculated (blinded) with the Neuroexplorer program. XG−102 0.3=0.3 mg/kg,XG−102 1=1 mg/kg, XG−102 5=5 mg/kg
The infarct volume sizes (mm^3) after bolus iv administration of placebo and XG-102 0.3, […] 6 hours after reperfusion (30 minutes clamp) in an adult mice model were as follows.

[2] = system: recombinant JNK1, JNK2, or JNK3 kinases; assay: Solid phase kinase assay, phosphorylation of c-Jun, ATF2 and Elk1 by recombinant JNKs; type: biochemical; settings: GST-Jun (aa 1-73), 0-250 μM dosage study
Procedure: The effects of the peptides on JNKs-mediated phosphorylation of their target transcription factors were investigated in vitro. Recombinant and non activated JNK1, JNK2 and JNK3 were produced using a TRANSCRIPTION AND TRANSLATION rabbit reticulocyte lysate kit (Promega) and used in solid phase kinase assays with c-Jun, ATF2 and Elk1, either alone or fused to glutathione-S-transferase (GST), as substrates. Dose response studies were performed wherein inventive L-TAT or L-TAT-IB1(s) peptides (0-25 μM) were mixed with the recombinant JNK1, JNK2, or JNK3 kinases in reaction buffer (20 mM Tris-acetate, 1 mM EGTA, 10 mM p-nitrophenyl-phosphate (pNPP), 5 mM sodium pyrophosphate, 10 mM p-glycerophosphate, 1 mM dithiothreitol) for 20 minutes. The kinase reactions were then initiated by the addition of 10 mM MgCl2 and 5 pCi […] and 1 μg of either GST-Jun (aa 1-89), GST-AFT2 (aa 1-96) or GST-ELK1 (aa 307-428). GST-fusion proteins were purchased from Stratagene (La Jolla, Calif.).
Ten μL of glutathione-agarose beads were also added to the mixture. Reaction products were then separated by SDS-PAGE on a denaturing 10% polyacrylamide gel. Gels were dried and subsequently exposed to X-ray films (Kodak). […] The ability of D-TAT, inventive D-TAT-IB1(s) and inventive L-TAT-IB1(s) peptides (0-250 μM dosage study) to inhibit GST-Jun (aa 1-73) phosphorylation by recombinant JNK1, JNK2, and JNKS by were analyzed as described above. Overall, D-TAT-IB1(s) peptide decreased JNK-mediated phosphorylation of c-Jun, but at levels approximately 10-20 fold less efficiently than L-TAT-IB1(s).

[3] = system: endogenous JNK activity in HepG2 cells; assay: Inhibition of endogenous IL-1β-induced JNK activity in HepG2 cells, AlphaScreen all-in one well approach; type: cell-based; settings: FIG. 6 panel d
Procedure: HepG2 cells were seeded at 3,000 cells/well the day prior the experiment. Then, increasing concentrations of either interleukin-1β [IL-1β(▪)] or tumor necrosis factor α[TNFα(●)] (a) were added to activate JNK for 30 minutes. Cells were lysed in 20 mM Hepes, 0.5% Tween pH 7.4 and processed for AlphaScreen JNK. (b) Z′ for the JNK activity induced by 10 ng/ml IL-1β and measured in 384 wells/plate (n=96). (c) Inhibition of endogenous IL-1β-induced JNK activity with chemical JNK inhibitors [staurosporin (∘) and SP600125 (●)]. (d) Effect of peptidic inhibitors L-TAT-IB1(s) according to SEQ ID NO: 9 [here abbreviated as L-JNKi (▪)) and D-TAT-IB1(s) according to SEQ ID NO: 11 (here abbreviated as D-JNKi (□)) and JBDs (●) (corresponds to L-JNKI without the TAT sequence)] on […] dependent JNK activity. All panels are representative of three independent experiments (n=3).
Methods: Alphascreen Kinase Assay
Principle: AlphaScreen is a non-radioactive bead-based technology used to study biomolecular interactions in a microplate format. The acronym ALPHA stands for Amplified Luminescence Proximity Homogenous Assay. […]
Kinase reagents (B-GST-cJun, anti P-cJun antibody and active JNKS) were first diluted in kinase buffer (20 mM Tris-HCl pH 7.6, 10 mM MgCl2, 1 mM DTT, 100 μM Na3VO4, 0.01% Tween-20) and added to wells (15 μl). […] AlphaScreen signal was analyzed directly on the Fusion or En Vision apparatus.

CC(C)C[C@@H](NC(=O)[C@@H](Cc1ccccc1)NC(=O)[C@H]1CCCN1C(=O)[C@@H](CCC(N)=O)NC(=O)[C@H](NC(=O)[C@H]1CCCN1C(=O)[C@@H](CCCNC(=N)N)NC(=O)[C@@H](CO)NC(=O)[C@@H](CCC(N)=O)NC(=O)[C@H](N)CC(=O)O)C(C)C)C(=O)N[C@H](CC(N)=O)C(=O)N[C@H](CC(C)C)C(=O)N[C@@H](C(=O)N[C@@H](C(=O)N1CCC[C@@H]1C(=O)N[C@H](CCCNC(=N)N)C(=O)N[C@H](CCCCN)C(=O)N1CCC[C@@H]1C(=O)N[C@H](CCCNC(=N)N)C(=O)N1CCC[C@@H]1C(=O)N1CCC[C@@H]1C(=O)N[C@H](CCCNC(=N)N)C(=O)N[C@H](CCCNC(=N)N)C(=O)N[C@H](CCCNC(=N)N)C(=O)N[C@H](CCC(N)=O)C(=O)N[C@H](CCCNC(=N)N)C(=O)N[C@H](CCCNC(=N)N)C(=O)N[C@H](CCCCN)C(=O)N[C@H](CCCCN)C(=O)N[C@H](CCCNC(=N)N)C(=O)NCC(=O)O)[C@H](C)O)[C@H](C)O [D-TAT-IB1(s)] (H-[dD][dQ][dS][dR][dP][dV][dQ][dP][dF][dL][dN][dL][dT][dT][dP][dR][dK][dP][dR][dP][dP][dR][dR][dR][dQ][dR][dR][dK][dK][dR]G-OH)
prevention of irradiation induced apoptosis (WiDr cells): able to prevent irradiation induced apoptosis | neuroprotection (infarct volumes) [1]: provides efficient neuroprotection | efficiency in decreasing JNK-mediated phosphorylation of c-Jun, fold less efficient than L-TAT-IB1(s) [2]: 10-20 fold | inhibition of endogenous JNK activity [3]: effectively inhibits JNK activity, even better than L-TAT-IB1(s)
